The values below come from patent publication US9949980B2, “Drugs to prevent HPV infection” (Wisconsin Alumni Research Foundation, priority 2008, dated 2018).

Entries after “also recorded” stand apart in the source; their conditions may differ. Like-named read-outs stand apart in the source and are kept apart here.

For one data set, the system named is HPV16 pseudoviruses. Kind of data set: microbe, parasite or virus in culture. It is filed as cell-based. The settings on record: for activity at 3 µM: Human papillomavirus 16, HEK-293T, 48 h. In a few lines:
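Viability was read by CellTiter Glo luminescence on the same wells used for the SEAP infection read-out, after 48 hrs further incubation.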

Data set [1] is described as follows: in vitro. The note with it: human.
The test system of data set [2] is HPV16 pseudovirus. Put plainly: microbe, parasite or virus in culture. It is filed as cell-based. The settings on record: HaCaT, HPV16 pseudovirus. From the text:
FIG. 2. Dose dependence inhibition of HPV16 pseudovirus infection in a human keratinocyte cell line (HaCaT). Graphed are the dose-dependent effects of lead compounds shown in Table 2 on the efficiency of infection by HPV16 pseudovirus scored by measuring luciferase reporter activity (squares) as well as their effects on cell viability (circles).
All but one of these compounds (6 is […]) were repurchased and subjected to a tertiary screen performed in the human keratinocyte cell line, HaCaT, and using HPV16 pseudoviruses encoding a third reporter gene, firefly luciferase, transcribed from a different, E1a, promoter.
The infectivity assay was repeated at least twice and each assay was performed in replicate (n≥3).
At 4 hours prior to exposure of cell to pseudoviruses, compounds were added to plates in 1% DMSO final concentration at the indicated amounts. Four hours later, 10 multiplicity of infection (M.O.I.) units of HPV16 pseudovirus carrying the plasmid LucF was added to the cells. 72 hours later, cells were lysed and luciferase assays performed using the Luciferase Assay System (Promega Cat. #E1501). For infection studies with HPV11 and HPV31 pseudoviruses, 200 virus genome equivalents (vge) of virus per cell were used. Cell viability was assessed in parallel plates by Luminescent Cell Viability Assay (Promega Cat. #G7571).

In another data set the test system is HPV16 virus. Kind of data set: Wild type HPV16 infection in 293T cells, early viral gene expression by real time PCR. It is filed as cell-based. The note with it: 5 to 10 μM (FIG. 3: 10 μM), 48 hours post infection. Here is the method:
FIG. 3. Inhibition of infection by HPV 16 virus. Shown is the relative efficiency of infection by HPV16 virus in 293T cells as scored by quantifying early viral transcription using real time PCR for E2 (dark grey bars), E5 (white bars) and E7 (light grey bars) containing mRNAs at 48 hours post-infection in the absence (DMSO—vehicle only, values set at 100%) or the presence of the indicated compound (10 μM concentration). Data points shown are the average of triplicate sample values. The dotted line indicates the normalized value for no drug (set as 100% infection value).
The 21 selected compounds were also tested for their ability to inhibit infection by bonafide HPV16 in 293T cells by measuring early viral gene expression by real time PCR at 48 hours post infection (FIG. 3) after treatment of the cell with 5 to 10 μM of each compound. Consistently with the data of reporter gene assays, HPV early gene expression was inhibited by Compounds 4, 13, 14, 18 and 20. Given the large differences in IC50 and CD50, and the reproducible capacity to inhibit infection by HPV16 pseudovirus and HPV16 virus in different cell types, Compounds 13 and 14 were selected for further analysis.
After 2 day infection, total RNA was isolated from infected cell lysate and treated with DNase I (Promega) as previously. (Pyeon, D. et al., Establishment of human papillomavirus infection requires cell cycle progression, PLos Pathog. 2009 February; 5(2):e1000318. Epub 2009 Feb. 27). Complementary DNA (cDNA) was synthesized from the normalized total RNA with the SuperScript cDNA synthesis kit (Invitrogen). All oligonucleotide primers (0.5 μM) for PCR are previously published (Pyeon D. et al., Production of infectious human papillomavirus independently of viral replication and epithelial cell differentiation, Proc. Nat'l Acad. Sci. USA, 2005 Jun. 28; 102(26):9311-6, Epub 2005 Jun. 15) or listed in Table 2.
Conventional PCR was performed with Taq DNA polymerase (Promega) and the following cycle: denaturation at 94° C. for 5 min, 42 cycles of 94° C. for 30 sec., 55° C. for 1 min., and 72° C. for 1 min., followed by extension at 72° C. for 7 min. Final products were analyzed by 1% agarose gel electrophoresis and ethidium bromide staining. Quantitative RT-PCR was performed using QuantiTect SYBR green PCR kit (Qiagen) with the following cycle: denaturation at 95° C. for 5 min. and 40 cycles of 95° C. for 30 sec., 55° C. for 30 sec., and 72° C. for 30 sec.

Data set [3] deals with HPV16 pseudovirus. Kind of data set: Luciferase assay: HPV16 pseudovirus with renilla luciferase reporter (HPV16wpA-RL). The settings on record: renilla luciferase reporter behind HPV16 promoter.
Description: (§1) The protocol for the secondary screen was identical to that of the primary screen with the exception that all volumes were scaled up by a factor of four. RL activity was measured using the Renilla Luciferase Assay System (Promega).
Data set [4] is described as follows: in vitro. The note with it: human. This is another data set of the same source.
The nature of data set [5]: in vitro. The note with it: human. The source holds these as a separate data set.
Description: as §1
A further data set concerns 293T cells. Put plainly: Primary HTS: cell viability (CellTiter Glo) in parallel on the same wells. The settings on record: 3 μM HTS standard concentration, 293T cells.
The mark [6] stands for this setting: read-out: Infectivity (SEAP Activity), 3 μM HTS standard concentration, 293T cells, 48 hrs.
The mark [7] stands for this setting: read-out: Infectivity vs. viability, 3 μM HTS standard concentration, ratio infectivity/viability.
Where [8] appears, read: read-out: Primary HTS SEAP vs Viability, Table 2, first pair of columns (c2).
[9] abbreviates: read-out: Primary HTS SEAP vs Viability, Table 2, second pair of columns (c4).
Setting [10] is: Primary HTS Viability % Average.

As a reminder, the viability is a read-out of living cells in per cent, often relative to untreated cells. As for `NNC(=O)c1cc(COc2cc(Cl)cc(Cl)c2)on1` [Compound 4, 5-[(3,5-dichlorophenoxy)methyl]-1,2-oxazole-3-carbohydrazide], the activity at 3 µM in the data set on HPV16 pseudoviruses (setting [6]) is 22.6%; with HPV16 pseudoviruses (setting [7]), 25%; in the data set on HPV16 pseudoviruses (setting [8]), 18.3%; in the data set with HPV16 pseudoviruses (setting [9]), 26.9%. For the same compound, the viability at 52 h, 3 μM in the data set “in vitro [1]” (setting [10]) amounted to 94.5%; in “in vitro [1]” (Viability (CelTiter Glow)), 90.4%. In addition, the “Effect on infection and cytotoxicity, assayed independently” value in the data set with HPV16 pseudovirus [2] is “inhibit infection but also to cause cytotoxicity at similar doses”. The “Inhibition of HPV16 early gene expression (E2, E5, E7 mRNAs)” value (from here on “Inhibition”) in the data set with HPV16 virus was “reproducible and significant inhibition; also recorded: inhibited”. Also, the “Luciferase assay RL % Average” value in the data set on HPV16 pseudovirus [3] is 68.26%.
For `COc1ccc(C(O)(CNCc2ccccc2)c2ccc(Br)cc2)cc1` (centres unmarked) [Compound 9, 2-(benzylamino)-1-(4-bromophenyl)-1-(4-methoxyphenyl)ethanol], the activity at 3 µM was 29.9% in the data set on HPV16 pseudoviruses (setting [6]), 28.4% with HPV16 pseudoviruses (setting [7]), 16.5% in the data set with HPV16 pseudoviruses (setting [8]) and 43.4% in the data set with HPV16 pseudoviruses (setting [9]). Besides, the viability at 52 h, 3 μM in the data set “in vitro [1]” (setting [10]) was found to be 101%; in the data set “in vitro [1]” (Viability (CelTiter Glow)) it was 105%. In addition, the results for the viability at 52 h, 3.3 μM in “in vitro [4]” and in the data set “in vitro [5]” were 102% and 99%, respectively. Besides, the “Luciferase assay RL % Average” value in the data set on HPV16 pseudovirus [3] was 71.67%.
For `COC(=O)C1=C(C)NC2=C(C(=O)c3ccccc32)C1c1cc2c(cc1Br)OCO2` (centres unmarked) [Compound 11, methyl 4-(6-bromo-1,3-benzodioxol-5-yl)-2-methyl-5-oxo-4,5-dihydro-1H-indeno[1,2-b]pyridine-3-carboxylate], the activity at 3 µM in the data set with HPV16 pseudoviruses (setting [6]) amounted to 19.1%; in the data set on HPV16 pseudoviruses (setting [7]), 14.7%; with HPV16 pseudoviruses (setting [8]), 17.7%; in the data set with HPV16 pseudoviruses (setting [9]) it was 20.4%. The viability at 52 h, 3 μM in “in vitro [1]” (Viability (CelTiter Glow)) came to 130%. Moreover, the values for the viability at 52 h, 3.3 μM in “in vitro [4]” and in “in vitro [5]” were 97.3% and 95.7%, respectively. The “Luciferase assay RL % Average” value in the data set with HPV16 pseudovirus [3] worked out at 95.56%.
For the compound `CCOc1ccc(C(=O)Nc2ccc3oc(-c4ccccc4Br)nc3c2)cc1` [Compound 15, N-[2-(2-bromophenyl)-1,3-benzoxazol-5-yl]-4-ethoxybenzamide], the activity at 3 µM stood at 26.4% in the data set with HPV16 pseudoviruses (setting [6]), 28.1% in the data set with HPV16 pseudoviruses (setting [7]), 11.1% in the data set with HPV16 pseudoviruses (setting [8]) and 41.6% in the data set on HPV16 pseudoviruses (setting [9]). In addition, the values for the viability at 52 h, 3 μM in the data set “in vitro [1]” (setting [10]) and in “in vitro [1]” (Viability (CelTiter Glow)) were 89.5% and 93.8%, respectively. The viability at 52 h, 3.3 μM in “in vitro [4]” is 95.7%; in “in vitro [5]” it was 97.7%. The “Luciferase assay RL % Average” value in the data set on HPV16 pseudovirus [3] stood at 102.39%.
Take `O=C1NC(=S)SC1=Cc1cc(Br)ccc1OCc1ccccc1Cl` [Compound 18, 5-{5-bromo-2-[(2-chlorobenzyl)oxy]benzylidene}-2-thioxo-1,3-thiazolidin-4-one]: the activity at 3 µM was found to be 24.2% in the data set with HPV16 pseudoviruses (setting [6]), 25.4% with HPV16 pseudoviruses (setting [7]), 27.2% with HPV16 pseudoviruses (setting [8]) and 21.2% with HPV16 pseudoviruses (setting [9]). Also, the viability at 52 h, 3 μM came to 87.8% in “in vitro [1]” (setting [10]) and 95.4% in the data set “in vitro [1]” (Viability (CelTiter Glow)). The “Inhibition” value in the data set with HPV16 virus was “reproducible and significant inhibition; also recorded: inhibited”. Further, the “Luciferase assay RL % Average” value in the data set with HPV16 pseudovirus [3] was determined as 112.63%.
Take `FC(F)(F)c1cnc2c(c1)nc(S)n2-c1ccc(Cl)cc1` [Compound 20, 3-(4-chlorophenyl)-6-(trifluoromethyl)-3H-imidazo[4,5-b]pyridine-2-thiol]: the activity at 3 µM with HPV16 pseudoviruses (setting [6]) was 21.4%; with HPV16 pseudoviruses (setting [7]), 21.6%; with HPV16 pseudoviruses (setting [8]) it was 20.9%; with HPV16 pseudoviruses (setting [9]), 21.9%. The viability at 52 h, 3 μM in the data set “in vitro [1]” (setting [10]) amounted to 95.8%; in “in vitro [1]” (Viability (CelTiter Glow)) it was 99.1%. The “Inhibition” value in the data set on HPV16 virus was “reproducible and significant inhibition; also recorded: inhibited”. Moreover, the “Luciferase assay RL % Average” value in the data set on HPV16 pseudovirus [3] was 109.22%.
`Cc1ccc(C2Nc3ccccc3NC3=C2C(=O)CC(c2ccccc2)C3)s1` (centres unmarked) [Compound 22, 11-(5-methyl-2-thienyl)-3-phenyl-2,3,4,5,10,11-hexahydro-1H-dibenzo[b,e][1,4]diazepin-1-one]: the activity at 3 µM was 44.1% with HPV16 pseudoviruses (setting [6]), 41.9% in the data set with HPV16 pseudoviruses (setting [7]), 45.2% with HPV16 pseudoviruses (setting [8]) and 43% in the data set with HPV16 pseudoviruses (setting [9]). Moreover, the viability at 52 h, 3 μM in the data set “in vitro [1]” (Viability (CelTiter Glow)) came out at 105%. The viability at 52 h, 3.3 μM in the data set “in vitro [4]” amounted to 93.7%; in the data set “in vitro [5]” it was 97.3%. Also, the “Luciferase assay RL % Average” value with HPV16 pseudovirus [3] was 44.37%.
For “-[(3-fluorophenypamino]-3-methylpyrido[1,2-a]benzimidazole-4-carbonitrile [Compound 5873417]”, the “Infectivity (SEAP Activity)” value in the data set with HPV16 pseudoviruses (3 μM HTS standard concentration, 293T cells, 48 hrs) was found to be 46.16%. Further, the Infectivity vs. viability in the data set with HPV16 pseudoviruses (3 μM HTS standard concentration, ratio infectivity/viability) amounted to 45.53%. The “Viability (CelTiter Glow)” value in the data set with 293T cells came to 101.39%.
